Calls of active or inactive are those of the source. The rule behind the calls is not given here.
What follows are compounds tested on Cell-based VP16 transactivation luciferase reporter, luminescence (assay: compounds lowering VP16-driven luciferase output – cell-based, luminescence, counter-screen for LRH-1 inverse agonist project, dose response (AID 651973)).

Row | Compound | IC50
1 | CC(=O)Nc1cc(-c2cccc(F)c2)cn2c(-c3ccc(S(C)(=O)=O)cc3)cnc12 | 18.7 µM (inactive)
2 | CC(C)(Oc1ccc(Cl)cc1)C(=O)OCC(=O)NCCc1ccccc1 | > 35.9 µM (inactive)
3 | COc1cc2c(cc1OC)CN(C(=O)CN1C(=O)NC3(CCC(C)CC3)C1=O)CC2 (centres undefined) | > 35.9 µM (inactive)
4 | CC1=CC(O)C(O)C2(C)C1CC1OC(=O)CC3C(C)C(O)C(=O)C2C13CO (centres undefined) | > 35.9 µM (inactive)
5 | O=C(CCl)NCCCN(C(=O)C(Cl)Cl)c1ccc([N+](=O)[O-])cc1 | 28.4 µM (inactive)
6 | COc1ccc(C2(C)NC(=O)N(CC(=O)NCCC3=CCCCC3)C2=O)cc1OC (centres undefined) | > 35.9 µM (inactive)
7 | CCC(=O)Nc1nnc(SCC(=O)NCCc2ccc(OC)c(OC)c2)s1 | > 35.9 µM (inactive)
8 | CCOc1ccc(NC(=O)COC(=O)c2ccc3c(c2)OCCO3)cc1 | > 35.9 µM (inactive)
9 | CS(=O)(=O)c1ccc(-c2cc(NC=O)c3ncc(-c4ccc(F)cc4)n3c2)cc1 | 14.6 µM (inactive)
10 | Cc1cc(C)c2c(=O)[nH]c(SCC(=O)Nc3ccc(Br)cc3)nc2n1 | > 35.9 µM (inactive)
11 | CCc1ccccc1NC(=O)CSc1nnc([C@@H]2CCCN2C(=O)OC(C)(C)C)o1 | > 35.9 µM (inactive)
12 | CCc1cc(=O)oc2cc(C)cc(OCC(=O)NC3CC3)c12 | > 35.9 µM (inactive)
13 | Cc1cc(Br)ccc1NC(=O)CN1C(=O)CCC1=O | > 35.9 µM (inactive)
14 | COc1ccc(NC(=O)COC(=O)Cc2c[nH]c3ccccc23)cc1Cl | > 35.9 µM (inactive)
15 | COc1cc(/C=N/n2nnnc2N)ccc1OCc1c(C)no[n+]1[O-] | > 35.9 µM (inactive)
16 | CCCN(CC(=O)Nc1ccccc1C)CC(=O)Nc1ccc(Br)cc1F | > 35.9 µM (inactive)
17 | CCOc1ccc(OCCN2C(=O)NC(Cc3c[nH]c4ccccc34)C2=O)cc1 (centres undefined) | > 35.9 µM (inactive)
18 | COc1ccc(NC(=O)COC(=O)c2cc(S(=O)(=O)N3CCCC3)ccc2O)cc1 | > 35.9 µM (inactive)
19 | Cc1cccc(CN2C(=O)CSc3ccc(C(=O)NC4CC4)cc32)c1 | 26.3 µM (inactive)
20 | O=C(CSc1nncc(=O)[nH]1)Nc1cccc([N+](=O)[O-])c1 | 34.4 µM (inactive)
21 | COC(=O)c1ccc(NC(=O)CSc2nncn2-c2cccnc2)cc1 | > 35.9 µM (inactive)
22 | COc1ccc(-n2c(N)c(C(=O)NCc3cccnc3)sc2=S)cc1 | > 35.9 µM (inactive)
23 | COc1ccc(-n2c(/C=C(\C)O)nc(=O)c3c(C)cc(C)nc32)cc1 | > 35.9 µM (inactive)
24 | COc1ccc(NC(=O)CSc2ncnc3[nH]ncc23)cc1 | > 35.9 µM (inactive)
25 | C[C@H](CO)N1C[C@H](C)[C@H](CN(C)Cc2ccncc2)Oc2cc(-c3ccccc3F)ccc2S1(=O)=O | 14.6 µM (inactive)

Row | Compound | IC50
26 | Cc1no[n+]([O-])c1COc1ccc(/C=N/n2nnnc2N)cc1 | > 35.9 µM (inactive)
27 | COc1ccc(CC(NC(C)=O)C(=O)NC2CCN(c3nnnn3-c3ccccc3)CC2)cc1 (centres undefined) | > 35.9 µM (inactive)
28 | Cc1onc(-c2cccc(Cl)c2Cl)c1C(=O)O/N=C(\N)c1ccc([N+](=O)[O-])o1 | > 35.9 µM (inactive)
29 | CCC(C)(C)n1nnnc1CN1CCC(O)(c2cccc(C(F)(F)F)c2)CC1 | > 35.9 µM (inactive)
30 | CCCc1cc(=O)oc2c(C)c(OCC(=O)NC3CC(C)(C)NC(C)(C)C3)ccc12 | > 35.9 µM (inactive)
31 | COc1ccc(Nc2nc(NCCN3CCOCC3)nc(Nc3ccc(OC)cc3)n2)cc1 | > 35.9 µM (inactive)
32 | Cc1ccc(NC(=O)CSc2nnc([C@@H]3CCCN3C(=O)OC(C)(C)C)o2)c(C)c1 | > 35.9 µM (inactive)
33 | Cc1ccc(NC(=O)COC(=O)C(NS(=O)(=O)c2ccc(Cl)cc2)C(C)O)cc1C (centres undefined) | > 35.9 µM (inactive)
34 | Cc1onc(-c2ccccc2Cl)c1C(=O)O/N=C(\N)c1ccc([N+](=O)[O-])o1 | > 35.9 µM (inactive)
35 | CCc1c(C)nc(SCC(=O)Nc2ccc3c(c2)OCCO3)[nH]c1=O | > 35.9 µM (inactive)
36 | CC(C)Oc1cccc(-c2cc(C(=O)NN3CCOCC3)c3ccccc3n2)c1 | > 35.9 µM (inactive)
37 | COCCn1c(C)cc(/C=C(\C#N)C(=O)OCC(=O)Nc2ccc(S(N)(=O)=O)cc2)c1C | > 35.9 µM (inactive)
38 | O=C(Nc1ccc(Cc2ccncc2)cc1)c1cccc([N+](=O)[O-])c1 | > 35.9 µM (inactive)
39 | Cc1nn(Cc2ccccc2)c(C)c1C(=O)OCC(=O)Nc1ccccc1SCC#N | > 35.9 µM (inactive)
40 | COc1ccc(NC(=O)CSc2ccc3c(c2)OCCO3)cc1 | > 35.9 µM (inactive)
41 | O=C(OCC(=O)N1CCN(C(=O)COC(=O)c2ccc(O)cc2O)CC1)c1ccc(O)cc1O | > 35.9 µM (inactive)
42 | O=C(COc1ccc2c3c(c(=O)oc2c1)CCCC3)NCc1ccccn1 | > 35.9 µM (inactive)
43 | CC(=O)c1ccc(NC(=O)C(C)O/N=C(\N)c2ccccc2)cc1 (centres undefined) | > 35.9 µM (inactive)
44 | O=C(Nc1ccc(S(=O)(=O)N2CCOCC2)cc1)c1cccc([N+](=O)[O-])c1 | > 35.9 µM (inactive)
45 | CC(=O)Nc1cc(-c2ccc(S(C)(=O)=O)cc2)cn2c(-c3ccc(F)cc3)cnc12 | > 35.9 µM (inactive)
46 | NC(=O)C1CCN(C(=O)COc2ccc3c4c(c(=O)oc3c2)CCCC4)CC1 | > 35.9 µM (inactive)
47 | CCCc1cc(=O)oc2c(C)c(OCC(=O)NCCCn3ccnc3)ccc12 | > 35.9 µM (inactive)
48 | Cc1cc(OCC(=O)NCc2cccnc2)c2c(C)c(C)c(=O)oc2c1 | > 35.9 µM (inactive)
49 | O=C(NC1CCCC(C(F)(F)F)C1)c1ccc([N+](=O)[O-])o1 (centres undefined) | > 35.9 µM (inactive)
50 | COCC(=O)NC1CCN(CC(=O)Nc2ccc(OC)cc2[N+](=O)[O-])CC1 | > 35.9 µM (inactive)

Row | Compound | IC50
51 | CCOc1ccc(NC(=O)CSc2nnc(C(C)C)n2CC)cc1 | > 35.9 µM (inactive)
52 | COC(=O)c1ccc(N2CCCCC2)c(NC(=O)c2ccco2)c1 | 13.3 µM (inactive)
53 | Cc1ccc(-c2nn3c(C)nnc3s2)cc1NC(=O)c1cccs1 | > 35.9 µM (inactive)
54 | Cc1ccc(NC(=O)COC(=O)c2cc(=O)c3ccccc3o2)c(Br)c1 | > 35.9 µM (inactive)
55 | CC1SC(C)C(=O)N(CC(=O)Nc2ccc3c(c2)OCO3)C1=O (centres undefined) | > 35.9 µM (inactive)
56 | Cc1no[n+]([O-])c1COc1ccc(/C=C2\NC(=S)NC2=O)cc1 | > 35.9 µM (inactive)
57 | Cc1cc(NC(=O)c2ccc([N+](=O)[O-])o2)ccc1NC(=O)c1ccco1 | > 35.9 µM (inactive)
58 | C/C(=N\Nc1cc(C(F)(F)F)ccc1Cl)c1ccncc1 | > 35.9 µM (inactive)
59 | COc1cc(OC)cc(-c2oc3cccnc3c2C#CCCO)c1 | > 35.9 µM (inactive)
60 | Cc1ccccc1C(=O)NC1CCN(CC(=O)Nc2ccc(Br)cc2)CC1 | > 35.9 µM (inactive)
61 | CCCc1nnc(SCC(=O)Nc2ccc(C(=O)OCC)cc2)o1 | > 35.9 µM (inactive)
62 | CC(=O)Nc1cc(-c2cccnc2)cn2c(-c3ccc(F)cc3)cnc12 | > 35.9 µM (inactive)
63 | CCOc1cc(/C=N/n2nnnc2N)ccc1OCc1c(C)no[n+]1[O-] | > 35.9 µM (inactive)
64 | Nc1ccc(C(=O)NN2C(=O)[C@H](Cl)C2c2ccc(Cl)cc2)cc1 (some centres undefined) | 9.87 µM
65 | Cc1cc(OCC(=O)N2CCC(O)CC2)c2c(C)cc(=O)oc2c1 | > 35.9 µM (inactive)
66 | COc1ccc(NC(=O)COC(=O)c2c(-c3ccccc3)noc2C)cc1 | > 35.9 µM (inactive)
67 | COc1ccc(CCNC(=O)COC(=O)Cc2ccccc2[N+](=O)[O-])cc1 | > 35.9 µM (inactive)
68 | CC(=O)c1ccc(OC(C)C(=O)OCC(=O)NCCc2ccccc2)cc1 (centres undefined) | > 35.9 µM (inactive)
69 | COc1ccc(NC(=O)CN2C(=O)NC3(CCCC3)C2=O)cc1 | > 35.9 µM (inactive)
70 | COc1cc(/C=N/NC(N)=S)ccc1OCC(=O)Nc1ccc(C)cc1 | > 35.9 µM (inactive)
71 | O=C(NCc1ccco1)c1nn(-c2ccccc2)c(=O)c2ccccc12 | > 35.9 µM (inactive)
72 | Cc1sc(NC(=O)C(C)C)c(C(=O)Nc2ccccc2)c1C | > 35.9 µM (inactive)
73 | CCOc1ccc(CCNC(=O)CN2C(=O)NC3(CCc4ccccc43)C2=O)cc1OCC (centres undefined) | > 35.9 µM (inactive)
74 | CCOc1ccc(NC(=O)CN2CCN(CC(=O)Nc3ccc(OC)cc3)CC2)cc1 | > 35.9 µM (inactive)

— PubChem BioAssay AID651973 (The Scripps Research Institute Molecular Screening Center, 2013)
